Structures can show the parent of a compound that is named as a salt. One block for each molecule: values may come before it. *1 amine or outer side, *2 acyl side, *3 side chain or, on linkers, in order; H or OH if unused. Where a SMILES comes first, the peptide text is derived from it. [ ]: non-standard residue; d: D form. The star is where a group is joined. Trp(1-formyl) = O=Cn1cc(C[C@H](N[*:1])C(=O)[*:2])c2ccccc21; Sta = CC(C)C[C@H](N)[C@@H](O)CC(=O)O; Suc = O=C(CCC(=O)[*:2])[*:1]; Isovaleryl = CC(C)CC(=O)*; Aun = NCCCCCCCCCCC(=O)O; Boc = CC(C)(C)OC(=O)*; NHOH = ON*
Columns and labels:
[1] = system: rats; conditions: cited from earlier work
[2] = system: rats; conditions: cited from earlier work; remark: listed apart in the source
[3] = system: cultured vascular endothelial cells and smooth muscle cells; conditions: cited from earlier work
[4] = system: pressor response of big ET; conditions: micromolar concentrations; in vitro and in vivo; cited from earlier work
[5] = system: anaesthetized pigs; conditions: cited from earlier work
[6] = system: cultured bovine aortic endothelial cells; conditions: intracellular accumulation; cited from earlier work
[7] = target: T1, endothelin converting enzyme (ECE) (Homo sapiens, UniProt P42892); experiment: ECE activity assay, ir-ET-1 formed from big ET measured by radioimmunoassay; type: biochemical
T1 sequence (P42892 1-770): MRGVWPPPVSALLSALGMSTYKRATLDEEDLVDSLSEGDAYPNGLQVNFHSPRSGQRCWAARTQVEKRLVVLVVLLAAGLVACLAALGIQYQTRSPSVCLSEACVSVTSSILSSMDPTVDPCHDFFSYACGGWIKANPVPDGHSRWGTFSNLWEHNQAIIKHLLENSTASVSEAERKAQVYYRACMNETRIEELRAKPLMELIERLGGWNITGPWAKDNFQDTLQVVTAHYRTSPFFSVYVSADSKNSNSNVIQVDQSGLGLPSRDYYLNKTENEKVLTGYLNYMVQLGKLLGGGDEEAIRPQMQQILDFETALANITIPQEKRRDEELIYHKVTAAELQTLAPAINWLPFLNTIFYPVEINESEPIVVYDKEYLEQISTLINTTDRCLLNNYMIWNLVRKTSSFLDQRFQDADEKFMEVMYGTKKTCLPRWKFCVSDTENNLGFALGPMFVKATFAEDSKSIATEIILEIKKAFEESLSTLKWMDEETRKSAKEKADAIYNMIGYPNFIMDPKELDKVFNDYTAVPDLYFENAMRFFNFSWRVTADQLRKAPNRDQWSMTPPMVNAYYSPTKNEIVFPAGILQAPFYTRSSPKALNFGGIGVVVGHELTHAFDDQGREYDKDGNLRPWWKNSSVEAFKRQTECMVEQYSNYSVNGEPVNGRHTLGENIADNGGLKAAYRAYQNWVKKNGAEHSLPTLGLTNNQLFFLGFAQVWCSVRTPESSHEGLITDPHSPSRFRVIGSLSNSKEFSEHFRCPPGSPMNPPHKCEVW
Method: ECE Activity Assay: The typical reaction mixture (50 μL) contained 10 μM big ET, 100 mM Hepes-KOH (pH 7.0), 0.25% Triton X-100, 0.01% NaN3, 0.2 mM phenylmethylsulfonyl fluoride, 50 μM pepstatin A, 0.1 mM leupeptin, the indicated concentration of compound (or DMSO for control), and the indicated amount of protein. The final DMSO concentration was kept at 3%. After incubation for 1.5 hours at 37° C., the reaction was stopped by the addition of EDTA to a final concentration of 10 mM. This final mixture was diluted (usually 100-fold) with the radioimmunoassay buffer (see below) and used for radioimmunoassay.
Radioimmunoassay (RIA): For the measurement of immunoreactive (ir) ET-1, the assay mixture (250 μL) contained the antibody against ET-1, an ET-1 sample, and [^125 I]ET-1 (7000 cpm) in the radioimmunoassay buffer (60 mM potassium phosphate (KPi), pH 7.4/10 mM, EDTA/8 mM, NaN3 /3% DMSO/0.1% bovine serum albumin/0.1% Tween 20). The order of the addition was ET-1 sample, followed by antibody, then [^125 I]ET-1. After incubation at 4° C. for 0.5 to 2 days, unbound ET-1 was co-precipitated by the addition of charcoal (2.4%, w/v)/dextran (0.24%, w/v) suspension (125 μL) in the RIA buffer with BSA replacedby gelatin (0.25%, w/v). The amount of ir-ET-1 was measured by counting the supernatant and determined from the standard curve. The cross-reactivity to big ET-1 was less than 0.01% and the detection limit was 1 Fmol.

[8] = system: allergic sheep; conditions: cited from earlier work
[9] = system: mouse; conditions: mouse model of endotoxic shock; cited from earlier work

Molecule: COc1cccc(Oc2c(NS(=O)(=O)c3ccc(C(C)(C)C)cc3)ncnc2OCCO)c1 [RO 46-2005]
efficacy in acute renal ischemia model [1]: effective | efficacy in subarachnoid hemorrhage model [2]: effective

Molecule: CC(C)C[C@H](NP(=O)(O)O[C@@H]1O[C@@H](C)[C@H](O)[C@@H](O)[C@H]1O)C(=O)N[C@@H](Cc1c[nH]c2ccccc12)C(=O)O [phosphoramidon]
intracellular conversion of big ET-1 to ET-1 [3]: inhibit the intracellular conversion of big ET-1 to ET-1 | pressor response of big ET [4]: block the pressor response of big ET | plasma ET-1 level [5]: did not have any effect | vasoconstrictor effects evoked by intravenous big ET-1 [5]: inhibit vasoconstrictor effects

Molecule: CC(C)CC(=O)N[C@H](C(=O)N[C@H](C(=O)N[C@@H](CC(C)C)[C@@H](O)CC(=O)N[C@@H](C)C(=O)N[C@@H](CC(C)C)[C@@H](O)CC(=O)O)C(C)C)C(C)C [pepstatin] (Isovaleryl-VV[Sta]A[Sta]-OH)
ET-1 production [6]: did not inhibit ET-1 production

Molecule: N-[(1,1-dimethyl-ethoxy) carbonyl]-L-isoleucyl-N-hydroxy-L-tryptophanamide [Example 4]
% ECE Inhibition ([7]; Conc. 100 μM): 44%

Molecule: N-[(1,1-dimethylethoxy)-carbonyl]-L-α-aspartyl-L-isoleucyl-n-isoleucyl-1-formyl-N-hydroxy-n-tryptophanamide (Boc-DII[Trp(1-formyl)]-{NHOH}; not fully specified; printed as N-[(1,1-dimethylethoxy)-carbonyl]-L-α-aspartyl-L-isoleucyl-n-isoleucyl-1-formyl-N-hydroxy-n-tryptophanamide) [Example 22]
% ECE Inhibition ([7]; Conc. 10 μM): 53% | % ECE Inhibition ([7]; Conc. 40 μM): 73% | % ECE Inhibition ([7]; Conc. 100 μM): 87%

Molecule: CC[C@H](C)[C@H](NC(=O)CCCCCCCCCCN)C(=O)N[C@H](C(=O)N[C@@H](Cc1c[nH]c2ccccc12)C(=O)NO)[C@@H](C)CC [Example 13] (H-[Aun]IIW-{NHOH})
inhibition at 10 µM ([7]; read-out: % ECE Inhibition): 22% | inhibition at 50 µM ([7]; read-out: % ECE Inhibition): 57%

Molecule: N-[(1,1-dimethyl-ethoxy) carbonyl]-L-isoleucyl-L-isoleuyl-N-hydroxy-D-tryptophanamide [Example 3]
% ECE Inhibition ([7]; Conc. 100 μM): 46%

IC50 ([7]; read-out: IC50 (ECE inhibition)): 4.7 µM
Molecule: CC[C@H](C)[C@H](NC(=O)CCC(=O)O)C(=O)N[C@H](C(=O)N[C@@H](Cc1c[nH]c2ccccc12)C(=O)NO)[C@@H](C)CC [Example 10] (Suc-Ile-Ile-Trp-{NHOH})

Molecule: CC[C@H](C)[C@H](NC(=O)OC(C)(C)C)C(=O)N[C@H](C(=O)N[C@@H](Cc1c[nH]c2ccccc12)C(=O)NO)[C@@H](C)CC [Example 2, N-[(1,1-dimethylethoxy)carbonyl]-L-isoleucyl-L-isoleucyl-N-hydroxy-L-tryptophanamide] (Boc-Ile-Ile-Trp-{NHOH})
inhibition at 100 µM ([7]; read-out: % ECE Inhibition): 47%

Molecule: CC(C)C[C@@H]1NC(=O)[C@@H](C(C)C)NC(=O)[C@@H]2CCCN2C(=O)[C@@H](CC(=O)O)NC(=O)[C@@H](Cc2c[nH]c3ccccc23)NC1=O [BQ-123] (cyclo(L[dW][dD]P[dV]))
ET-1-induced bronchoconstriction and tracheal smooth muscle contraction [8]: block ET-1-induced bronchoconstriction and tracheal smooth muscle contraction | survival rate [9]: significantly increased the survival rate

Molecule: CC[C@H](C)[C@H](NC(=O)CCCCCCCCCCN)C(=O)N[C@H](C(=O)N[C@@H](Cc1c[nH]c2ccccc12)C(=O)NOCc1ccccc1)[C@@H](C)CC [Example 12]
inhibition at 100 µM ([7]; read-out: % ECE Inhibition): 65%

Molecule: CC[C@H](C)[C@H](N)C(=O)N[C@H](C(=O)N[C@@H](Cc1c[nH]c2ccccc12)C(=O)NO)[C@@H](C)CC [Example 6, L-isoleucyl-L--isoleucyl-N-hydroxy-L-tryptophanamide, monohydrochloride] (H-Ile-Ile-Trp-{NHOH})
inhibition at 100 µM ([7]; read-out: % ECE Inhibition): 74%
